Assay results as given in DBAASP.
In brackets after ≈: the same amount, converted by molar mass. Several values for one entry are separate records, joined by “and”; a condition that tells them apart may be missing. Equal values may be shown once. Values belong to the compound of their own block, whether it stands above or below them.

Tests used:
Assay in all cases: ≥ marks a high value that may be exact or a test limit, other limits are often not marked, values filed in µg/mL are converted to µM
[1] = tested on: Acinetobacter baumannii ATCC 19606
[2] = tested on: Escherichia coli ATCC 25922
[3] = tested on: Escherichia coli BW25113 ΔsbmA
Escherichia coli BW25113 = tested on: Escherichia coli BW25113
[4] = tested on: Klebsiella pneumoniae ATCC 700603
[5] = tested on: Pseudomonas aeruginosa ATCC 27853
[6] = tested on: Staphylococcus aureus ATCC 25923
[7] = tested on: Salmonella enterica subsp. enterica serovar Typhimurium ATCC 14028
[8] = tested on: Cronobacter sakazakii DPC 6440
[9] = tested on: Listeria monocytogenes LO28
[10] = tested on: Clavibacter michiganensis subsp. michiganensis DSM 46294
[11] = tested on: Pectobacterium carotovorum subsp. carotovorum DSM 30168
[12] = tested on: Pseudomonas corrugata DSM 7228
[13] = tested on: Pseudomonas syringae pv. syringae DSM 10604
[14] = tested on: Pseudomonas syringae pv. tomato DC3000
[15] = tested on: Staphylococcus aureus 90857
[16] = tested on: Xanthomonas vesicatoria DSM 50861
[17] = tested on: Escherichia coli DH5alpha
Escherichia coli = tested on: Escherichia coli
[18] = tested on: Pseudomonas aeruginosa H188

Compound: CC[C@H](C)[C@H](NC(=O)[C@H](CCCN=C(N)N)NC(=O)[C@@H](N)Cc1c[nH]c2ccccc12)C(=O)N[C@@H](CCCN=C(N)N)C(=O)N1CCC[C@H]1C(=O)N[C@@H](CCCN=C(N)N)C(=O)N1CCC[C@H]1C(=O)N1CCC[C@H]1C(=O)N[C@@H](CCCN=C(N)N)C(=O)N[C@@H](CC(C)C)C(=O)N1CCC[C@H]1C(=O)N[C@@H](CCCN=C(N)N)C(=O)N[C@@H](Cc1c[nH]c2ccccc12)C(=O)N[C@@H](CCCN=C(N)N)C(=O)N1CCC[C@H]1C(=O)N[C@@H](CCCN=C(N)N)C(=O)O [WRIRPRPPRLPRWRPR]
MIC [1]: 32 µM (≈ 70.3 µg/mL)
MIC [2]: 1.5 µM and 2 µM
MIC [3]: 16 µM and ≥ 32 µM
MIC (Escherichia coli BW25113): 2 µM (≈ 4.39 µg/mL)
MIC [4]: 8 µM (≈ 17.6 µg/mL)
MIC [5]: > 64 µM
MIC [6]: > 64 µM

Compound: CC[C@H](C)[C@H](NC(=O)[C@@H]1CCCN1C(=O)[C@@H]1CCCN1C(=O)[C@H](CCCN=C(N)N)NC(=O)[C@H](Cc1ccccc1)NC(=O)[C@@H](N)CCCN=C(N)N)C(=O)N[C@@H](CCCN=C(N)N)C(=O)N[C@@H](CCCN=C(N)N)C(=O)N1CCC[C@H]1C(=O)N1CCC[C@H]1C(=O)N[C@H](C(=O)N[C@@H](CCCN=C(N)N)C(=O)N1CCC[C@H]1C(=O)N1CCC[C@H]1C(=O)N[C@@H](Cc1ccccc1)C(=O)N[C@@H](Cc1ccc(O)cc1)C(=O)N1CCC[C@H]1C(=O)N1CCC[C@H]1C(=O)N[C@@H](Cc1ccccc1)C(=O)O)[C@@H](C)CC [RFRPPIRRPPIRPPFYPPF]
MIC [1]: 32 µM (≈ 77 µg/mL)
MIC [2]: 12 µM (≈ 28.9 µg/mL)
MIC [3]: ≥ 32 µM
MIC (Escherichia coli BW25113): 8 µM (≈ 19.3 µg/mL)
MIC [4]: > 64 µM
MIC [5]: > 64 µM
MIC [7]: 32 µM (≈ 77 µg/mL)
MIC [6]: > 64 µM

Compound: CC[C@H](C)[C@H](NC(=O)[C@H](CCCCN)NC(=O)[C@H](CCCCN)NC(=O)[C@H](CC(C)C)NC(=O)[C@H](CCCCN)NC(=O)[C@H](CCCN=C(N)N)NC(=O)[C@@H](N)CC(C)C)C(=O)N[C@@H](CC(C)C)C(=O)N[C@@H](CCCCN)C(=O)N[C@@H](CCCCN)C(=O)N[C@@H](CC(C)C)C(=O)N[C@@H](Cc1ccccc1)C(N)=O [LRKLKKILKKLF]
MIC [10]: 0.164 µM (≈ 0.25 µg/mL)
MIC [11]: 1.64 µM (≈ 2.5 µg/mL)
MIC [12]: 0.164 µM (≈ 0.25 µg/mL)
MIC [13]: 0.164 µM (≈ 0.25 µg/mL)
MIC [14]: 0.327 µM (≈ 0.5 µg/mL)
MIC [15]: 6.25 µM (≈ 9.54 µg/mL)
MIC [16]: 0.0654 µM (≈ 0.0999 µg/mL)

Compound: CC[C@H](C)[C@H](NC(=O)[C@H](C)NC(=O)[C@H](CCCCN)NC(=O)[C@H](CC(C)C)NC(=O)[C@H](C)NC(=O)[C@@H](NC(=O)[C@H](Cc1cnc[nH]1)NC(=O)[C@H](CC(C)C)NC(=O)[C@H](CC(C)C)NC(=O)[C@@H](NC(=O)[C@H](CCCCN)NC(=O)[C@H](CCCCN)NC(=O)[C@H](C)NC(=O)[C@H](CO)NC(=O)[C@H](CCCCN)NC(=O)[C@H](Cc1ccccc1)NC(=O)[C@@H](NC(=O)[C@H](CCCCN)NC(=O)[C@H](CC(C)C)NC(=O)[C@H](Cc1ccccc1)NC(=O)[C@H](CO)NC(=O)[C@H](CCCCN)NC(=O)[C@H](Cc1c[nH]c2ccccc12)NC(=O)[C@H](CCCCN)NC(C)=O)[C@@H](C)O)[C@@H](C)O)[C@@H](C)O)C(=O)N[C@@H](CO)C(=O)N[C@@H](CO)C(N)=O [KWKSFLKTFKSAKKTLLHTALKAISS]
MIC [2]: 0.337 µM (≈ 1.01 µg/mL)
MIC [17]: 1.35 µM (≈ 4.06 µg/mL)
MIC (Escherichia coli): 0.337 µM (≈ 1.01 µg/mL)
MIC [5]: 0.675 µM (≈ 2.03 µg/mL)
MIC [18]: 0.675 µM (≈ 2.03 µg/mL)

Compound: CC[C@H](C)[C@H](NC(=O)[C@@H]1CCCN1C(=O)[C@@H]1CCCN1C(=O)[C@H](CCCN=C(N)N)NC(=O)[C@H](Cc1ccccc1)NC(=O)[C@@H](N)CCCN=C(N)N)C(=O)N[C@@H](CCCN=C(N)N)C(=O)N[C@@H](CCCN=C(N)N)C(=O)N1CCC[C@H]1C(=O)N1CCC[C@H]1C(=O)N[C@H](C(=O)N[C@@H](CCCN=C(N)N)C(=O)N1CCC[C@H]1C(=O)N1CCC[C@H]1C(=O)N[C@@H](Cc1ccccc1)C(=O)N[C@@H](Cc1ccc(O)cc1)C(=O)N1CCC[C@H]1C(=O)O)[C@@H](C)CC [RFRPPIRRPPIRPPFYP]
MIC [1]: 64 µM (≈ 138 µg/mL)
MIC [2]: 16 µM (≈ 34.6 µg/mL)
MIC [3]: ≥ 64 µM
MIC (Escherichia coli BW25113): 11.3 µM (≈ 24.5 µg/mL)
MIC (Escherichia coli): 5.66 µM (≈ 12.2 µg/mL)
MIC [4]: > 64 µM
MIC [5]: > 64 µM
MIC [7]: 32 µM (≈ 69.2 µg/mL)
MIC [6]: > 64 µM

Compound: CC[C@H](C)[C@H](NC(=O)[C@@H](NC(=O)[C@H](CCCCN)NC(=O)[C@H](CCCCN)NC(=O)[C@@H](NC(=O)[C@@H](NC(=O)[C@H](CCCCN)NC(=O)[C@H](C)NC(=O)[C@H](CCCCN)NC(=O)[C@H](CCCCN)NC(=O)[C@H](CCCCN)NC(=O)[C@@H](N)CCCN=C(N)N)[C@@H](C)CC)[C@@H](C)CC)[C@@H](C)CC)C(N)=O [RKKKAKIIKKII]
MIC [10]: 6.82 µM (≈ 9.99 µg/mL)
MIC [11]: 6.82 µM (≈ 9.99 µg/mL)
MIC [12]: 6.82 µM (≈ 9.99 µg/mL)
MIC [13]: 0.682 µM (≈ 0.999 µg/mL)
MIC [14]: 6.82 µM (≈ 9.99 µg/mL)
MIC [15]: ≥ 62.5 µM
MIC [16]: 6.82 µM (≈ 9.99 µg/mL)

Compound: CC[C@H](C)[C@H](NC(=O)[C@H](CC(C)C)NC(=O)[C@H](CCCN=C(N)N)NC(=O)[C@H](CCCN=C(N)N)NC(=O)[C@H](CC(C)C)NC(=O)[C@@H](NC(=O)[C@H](CCCN=C(N)N)NC(=O)[C@H](CCCN=C(N)N)NC(=O)[C@@H](NC(=O)[C@@H](NC(=O)[C@H](CCCN=C(N)N)NC(=O)[C@@H](N)CC(C)C)[C@@H](C)CC)[C@@H](C)CC)[C@@H](C)CC)C(N)=O [LRIIRRILRRLI]
MIC [10]: 1.57 µM (≈ 2.5 µg/mL)
MIC [11]: 1.57 µM (≈ 2.5 µg/mL)
MIC [12]: 1.57 µM (≈ 2.5 µg/mL)
MIC [13]: 1.57 µM (≈ 2.5 µg/mL)
MIC [14]: 0.628 µM (≈ 0.999 µg/mL)
MIC [15]: 25 µM (≈ 39.8 µg/mL)
MIC [16]: 0.628 µM (≈ 0.999 µg/mL)

Continued, values first:

MIC [8]: ≥ 39.1 µM
MIC [9]: 9.77 µM (≈ 18.3 µg/mL)
Compound: CC[C@H](C)[C@H](NC(=O)[C@@H](N)Cc1c[nH]c2ccccc12)C(=O)N[C@@H](CCC(N)=O)C(=O)N[C@@H](C)C(=O)N[C@@H](CCCCN)C(=O)N[C@H](C(=O)N[C@@H](CCCCN)C(=O)N[C@H](C(=O)N[C@H](C(=O)N1CCC[C@H]1C(=O)N[C@@H](Cc1ccc(O)cc1)C(=O)N[C@H](C(=O)N[C@@H](CCCN=C(N)N)C(=O)N[C@@H](Cc1ccc(O)cc1)C(=O)N[C@@H](CC(C)C)C(=O)O)C(C)C)[C@@H](C)CC)C(C)C)[C@@H](C)O [WIQAKTKVIPYVRYL]

MIC [8]: ≥ 625 µM
MIC [9]: ≥ 156 µM
Compound: CC[C@H](C)[C@H](NC(=O)[C@@H](N)Cc1c[nH]c2ccccc12)C(=O)N[C@@H](CCC(N)=O)C(=O)N1CCC[C@H]1C(=O)N[C@@H](C)C(=O)N[C@H](C(=O)N[C@@H](CCCCN)C(=O)N[C@H](C(=O)N[C@H](C(=O)N1CCC[C@H]1C(=O)N[C@@H](Cc1ccc(O)cc1)C(=O)N[C@H](C(=O)N[C@@H](C)C(=O)N[C@@H](Cc1ccc(O)cc1)C(=O)N[C@@H](CC(C)C)C(=O)O)C(C)C)[C@@H](C)CC)C(C)C)[C@@H](C)O [WIQPATKVIPYVAYL]

MIC [8]: ≥ 78.1 µM
MIC [9]: ≥ 39.1 µM
Compound: CC[C@H](C)[C@H](NC(=O)[C@@H](N)Cc1c[nH]c2ccccc12)C(=O)N[C@@H](CCC(N)=O)C(=O)N1CCC[C@H]1C(=O)N[C@@H](CCCCN)C(=O)N[C@H](C(=O)N[C@@H](CCCCN)C(=O)N[C@H](C(=O)N[C@H](C(=O)N1CCC[C@H]1C(=O)N[C@@H](Cc1ccc(O)cc1)C(=O)N[C@H](C(=O)N[C@@H](CCCN=C(N)N)C(=O)N[C@@H](Cc1ccc(O)cc1)C(=O)N[C@@H](CC(C)C)C(=O)O)C(C)C)[C@@H](C)CC)C(C)C)[C@@H](C)O [WIQPKTKVIPYVRYL]

MIC [8]: ≥ 78.1 µM
MIC [9]: 19.5 µM (≈ 36.6 µg/mL)
Compound: CC[C@H](C)[C@H](NC(=O)[C@@H](N)Cc1c[nH]c2ccccc12)C(=O)N[C@@H](CCC(N)=O)C(=O)N1CCC[C@H]1C(=O)N[C@@H](CCCCN)C(=O)N[C@@H](C)C(=O)N[C@@H](CCCCN)C(=O)N[C@H](C(=O)N[C@H](C(=O)N1CCC[C@H]1C(=O)N[C@@H](Cc1ccc(O)cc1)C(=O)N[C@H](C(=O)N[C@@H](CCCN=C(N)N)C(=O)N[C@@H](Cc1ccc(O)cc1)C(=O)N[C@@H](CC(C)C)C(=O)O)C(C)C)[C@@H](C)CC)C(C)C [WIQPKAKVIPYVRYL]
